Read-outs that look alike come from different tables or passages of the source. Marks after values point to notes of the source that are not given here.
Key:
[1] = system: cPLA2; assay type: cell-based, mouse; settings: for decrease in cPLA2 level: compared to LPS-exposed cells
[2] = target: cPLA2; experiment: biochemical; parameters: species or system bee
Target sequence in this assay (P00630 34-167 limits assumed): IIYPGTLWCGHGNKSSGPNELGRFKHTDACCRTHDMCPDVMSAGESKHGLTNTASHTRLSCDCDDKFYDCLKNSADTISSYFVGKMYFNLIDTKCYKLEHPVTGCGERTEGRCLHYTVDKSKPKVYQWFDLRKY

[3] = system: TNF-α; assay type: cell-based, mouse; settings: for decrease in TNF-α level: compared to LPS-exposed cells
[4] = system: NO; assay type: cell-based, mouse; settings: for decrease in NO level: compared to LPS-exposed cells
[5] = system: IL-8; experiment: IL-8 level in LPS-treated isolated lung cells (ELISA); assay type: cell-based, mouse; settings: for decrease in IL-8 level: compared to LPS-exposed cells
[6] = system: sPLA2; assay type: cell-based, mouse; settings: for decrease in sPLA2 level: compared to LPS-exposed cells
[7] = target: sPLA2; experiment: sPLA2 enzyme inhibition assay (Cayman Chemical kit); assay type: biochemical; settings: mean ± SD; tested 0–17.5 µM
Experimental: The sPLA2 screening assay was carried out according to the manufacturer’s protocol (Cayman Chemical). Briefly, 10 μL of sPLA2 was mixed with 10 μL of dimethyl sulfoxide. In a separate experiment, 10 µL of sPLA2 was added to 10 µL standard sPLA2 inhibitor (thioetheramide, 12.5 µM) and 200 µL substrate solution (diheptanoyl thiol). […] In a separate experiment, 10 μL of assay buffer was mixed with 10 μL of dimethyl sulfoxide and 200 µL of substrate solution. The reaction was initiated by the addition 10 µL of DTNB to all samples. The plate was carefully vortexed for 10 s, then covered with a plate cover and incubated for 15 min at 25 °C. Absorbance was recorded at […] using a plate reader and the IC50 was determined for the synthesized compounds (4–6 and 12) as well as the standard drugs.

[8] = target: SARS-CoV-2 main protease (Severe acute respiratory syndrome coronavirus 2, UniProt P0DTD1); experiment: biochemical; settings: mean ± SD; tested 0–17.5 µM
[9] = target: cPLA2 (bee venom PLA2) (Apis mellifera, UniProt P00630); experiment: biochemical
[10] = LPS 1 μg/mL + higher dose: 4 2.84, 5 3.68, 6 1.18, 12 5.47, baicalein 3.88, ivermectin 149.39 µM
[11] = LPS 1 μg/mL + lower dose: 4 1.44, 5 2.08, 6 0.5, 12 2.39, baicalein 0.89, ivermectin 131.01 µM
[12] = higher dose: 4 2.84, 5 3.68, 6 1.18, 12 5.47, baicalein 3.88, ivermectin 149.39 µM
[13] = lower dose: 4 1.44, 5 2.08, 6 0.5, 12 2.39, baicalein 0.89, ivermectin 131.01 µM

cPLA2 (bee venom PLA2), sequence (P00630 34-167 limits assumed): as above

| Compound | cPLA2 level [1, 10] | cPLA2 level [1, 11] | decrease in cPLA2 level [1, 12] [%] | decrease in cPLA2 level [1, 13] [%] | TNF-α level [3, 10] | TNF-α level [3, 11] | decrease in TNF-α level [3, 12] [%] | decrease in TNF-α level [3, 13] [%] | NO level [4, 10] | NO level [4, 11] | decrease in NO level [4, 12] [%] | decrease in NO level [4, 13] [%] | IL-8 level [5, 10] | IL-8 level [5, 11] | decrease in IL-8 level [5, 12] [%] | decrease in IL-8 level [5, 13] [%] | sPLA2 level [6, 10] | sPLA2 level [6, 11] | decrease in sPLA2 level [6, 12] [%] | decrease in sPLA2 level [6, 13] [%] | other results |
| --- | --- | --- | --- | --- | --- | --- | --- | --- | --- | --- | --- | --- | --- | --- | --- | --- | --- | --- | --- | --- | --- |
| O=c1cc(-c2ccccc2)oc2cc(O)c(O)c(O)c12 [Baicalein, reference compound] | 616.34 ± 28.34 ^c dpm/mL | 903.43 ± 35.71 ^g dpm/mL | 78.13 | 67.33 | 431.21 ± 32.88 ^c pg/mL | 639.55 ± 37.84 ^g pg/mL | 56.01 | 34.76 | 20.53 ± 1.89 ^c µmol/L | 32.01 ± 4.81 ^f µmol/L | 70.07 | 53.33 | 1.42 ± 0.13 ^c ng/mL | 2.06 ± 0.23 ^g ng/mL | 75.26 | 64.11 | 24.77 ± 2.73 ^c pg/mL | 54.27 ± 3.46 ^h pg/mL | 80.88 | 58.11 | IC50 [2]: 3.88 ± 0.013 µM; IC50 [7]: 0.89 ± 0.041 µM |
| COc1cc(C=Nn2c(Nc3ccc(S(=O)(=O)Nc4nccc(C)n4)cc3)nc3ccccc3c2=O)ccc1O [Compound 5] | 719.32 ± 37.15 ^e dpm/mL | 1258.99 ± 35.57 ^k dpm/mL | 74.48 | 55.32 | 524.98 ± 19.11 ^e pg/mL | 671.91 ± 23.11 ^i pg/mL | 46.44 | 31.26 | 29.37 ± 2.21 ^f µmol/L | 45.75 ± 2.87 ^g µmol/L | 57.18 | 33.29 | 2.40 ±0.09 ^e ng/mL | 2.74 ± 0.32 ^c ng/mL | 58.19 | 52.26 | 34.17 ± 1.73 ^e pg/mL | 72.13 ± 3.94 ^k pg/mL | 73.63 | 44.33 | IC50 [2]: 2.08 ± 0.016 µM; IC50 [8]: 3.68 ± 2.35 µM; IC50 [7]: 2.73 ± 0.008 µM |
| Ivermectin [reference compound] | 1002.65 ± 90.98 ^h dpm/mL | 1172.50 ± 72.55 ^j dpm/mL | 64.41 | 58.39 | 714.29 ± 28.09 ^g pg/mL | 870.22 ± 40.62 ^k pg/mL | 27.13 | 11.23 | 50.74 ± 3.34 ^h µmol/L | 62.01 ± 4.81 ^i µmol/L | 26.02 | 9.59 | 3.10 ± 0.1 ^f ng/mL | 3.77 ± 0.62 ^g ng/mL | 45.99 | 34.32 | 62.31 ± 1.41 ^j pg/mL | 106.13 ± 9.81 ^m pg/mL | 51.41 | 18.09 | IC50 [9]: 138 ± 1.54 µM; IC50 [8]: 42.4 ± 2.5 µM; IC50 [7]: 110 ± 3.27 µM |
| Cc1ccnc(NS(=O)(=O)c2ccc(Nc3nc4ccccc4c(=O)n3N)cc2)n1 [Compound 4] | 671.05 ± 29.17 ^d dpm/mL | 1077.77 ± 68.61 ^i dpm/mL | 76.19 | 61.75 | 481.36 ± 39.63 ^d pg/mL | 654.20 ± 22.28 ^h pg/mL | 50.90 | 33.36 | 25.18 ± 2.98 ^d µmol/L | 37.27 ± 3.00 ^c µmol/L | 63.29 | 45.66 | 2.17 ± 0.07 ^d ng/mL | 2.55 ± 0.26 ^c ng/mL | 62.20 | 55.57 | 29.10 ± 2.52 ^d pg/mL | 57.93 ± 2.92 ^i pg/mL | 77.54 | 55.29 | IC50 [2]: 1.44 ± 0.009 µM; IC50 [8]: 2.012 ± 0.004 µM; IC50 [7]: 2.84 ± 0.026 µM |
| CCOC(=O)c1nn2c(=O)c3ccccc3nc2n1-c1ccc(S(=O)(=O)Nc2nccc(C)n2)cc1 [Compound 12] | 722.24 ± 30.40 ^e dpm/mL | 1348.21 ± 50.26 dpm/mL | 74.37 | 52.15 | 551.52 ± 24.65 ^f pg/mL | 748.98 ± 31.22 ^j pg/mL | 43.75 | 23.59 | 30.94 ± 3.76 ^f µmol/L | 50.36 ± 3.96 ^h µmol/L | 54.89 | 26.57 | 3.21 ± 0.21 ^f ng/mL | 3.84 ± 0.29 ^g ng/mL | 44.08 | 33.10 | 40.61 ± 4.19 ^f pg/mL | 85.23 ± 6.51 ^l pg/mL | 68.66 | 34.22 | IC50 [2]: 2.39 ± 0.046 µM; IC50 [8]: 5.47 ± 0.018 µM; IC50 [7]: 4.45 ± 0.007 µM |
| Cc1ccnc(NS(=O)(=O)c2ccc(N3CC(=O)Nn4c3nc3ccccc3c4=O)cc2)n1 [Compound 6] | 536.93 ± 23.50 ^b dpm/mL | 830.11 ± 34.00 ^f dpm/mL | 80.94 | 70.54 | 424.25 ± 36.86 ^f pg/mL | 582.31 ± 52.25 ^e pg/mL | 56.72 | 40.59 | 19.02 ± 1.5 ^b µmol/L | 24.67 ± 2.70 ^e µmol/L | 72.27 | 64.03 | 1.17 ± 0.06 ^b ng/mL | 1.79 ± 0.14 ^d ng/mL | 79.62 | 68.82 | 18.29 ± 2.35 ^b pg/mL | 43.44 ± 2.74 ^g pg/mL | 85.88 | 66.47 | IC50 [2]: 0.5 ± 0.008 µM; IC50 [8]: 1.18 ± 0.025 µM; IC50 [7]: 1.02 ± 0.039 µM |
